Activity calls are given as the source filed them. How the calls were made is not given here.

By IC50 is commonly meant the midpoint of a concentration-inhibition curve.

For one experiment, the target named is Genome polyprotein (Dengue virus type 2 (strain 16681-PDK53)) (UniProt P29991). Nature of the experiment: Dengue-2 NS5 guanylylation inhibitors, dose response, biochemical, secondary assay (AID 623863). The settings on record: Dengue-2 NS5 guanylylation inhibition.
Chain of Genome polyprotein (Dengue virus type 2 (strain 16681-PDK53)) (P29991 whole entry, looked up): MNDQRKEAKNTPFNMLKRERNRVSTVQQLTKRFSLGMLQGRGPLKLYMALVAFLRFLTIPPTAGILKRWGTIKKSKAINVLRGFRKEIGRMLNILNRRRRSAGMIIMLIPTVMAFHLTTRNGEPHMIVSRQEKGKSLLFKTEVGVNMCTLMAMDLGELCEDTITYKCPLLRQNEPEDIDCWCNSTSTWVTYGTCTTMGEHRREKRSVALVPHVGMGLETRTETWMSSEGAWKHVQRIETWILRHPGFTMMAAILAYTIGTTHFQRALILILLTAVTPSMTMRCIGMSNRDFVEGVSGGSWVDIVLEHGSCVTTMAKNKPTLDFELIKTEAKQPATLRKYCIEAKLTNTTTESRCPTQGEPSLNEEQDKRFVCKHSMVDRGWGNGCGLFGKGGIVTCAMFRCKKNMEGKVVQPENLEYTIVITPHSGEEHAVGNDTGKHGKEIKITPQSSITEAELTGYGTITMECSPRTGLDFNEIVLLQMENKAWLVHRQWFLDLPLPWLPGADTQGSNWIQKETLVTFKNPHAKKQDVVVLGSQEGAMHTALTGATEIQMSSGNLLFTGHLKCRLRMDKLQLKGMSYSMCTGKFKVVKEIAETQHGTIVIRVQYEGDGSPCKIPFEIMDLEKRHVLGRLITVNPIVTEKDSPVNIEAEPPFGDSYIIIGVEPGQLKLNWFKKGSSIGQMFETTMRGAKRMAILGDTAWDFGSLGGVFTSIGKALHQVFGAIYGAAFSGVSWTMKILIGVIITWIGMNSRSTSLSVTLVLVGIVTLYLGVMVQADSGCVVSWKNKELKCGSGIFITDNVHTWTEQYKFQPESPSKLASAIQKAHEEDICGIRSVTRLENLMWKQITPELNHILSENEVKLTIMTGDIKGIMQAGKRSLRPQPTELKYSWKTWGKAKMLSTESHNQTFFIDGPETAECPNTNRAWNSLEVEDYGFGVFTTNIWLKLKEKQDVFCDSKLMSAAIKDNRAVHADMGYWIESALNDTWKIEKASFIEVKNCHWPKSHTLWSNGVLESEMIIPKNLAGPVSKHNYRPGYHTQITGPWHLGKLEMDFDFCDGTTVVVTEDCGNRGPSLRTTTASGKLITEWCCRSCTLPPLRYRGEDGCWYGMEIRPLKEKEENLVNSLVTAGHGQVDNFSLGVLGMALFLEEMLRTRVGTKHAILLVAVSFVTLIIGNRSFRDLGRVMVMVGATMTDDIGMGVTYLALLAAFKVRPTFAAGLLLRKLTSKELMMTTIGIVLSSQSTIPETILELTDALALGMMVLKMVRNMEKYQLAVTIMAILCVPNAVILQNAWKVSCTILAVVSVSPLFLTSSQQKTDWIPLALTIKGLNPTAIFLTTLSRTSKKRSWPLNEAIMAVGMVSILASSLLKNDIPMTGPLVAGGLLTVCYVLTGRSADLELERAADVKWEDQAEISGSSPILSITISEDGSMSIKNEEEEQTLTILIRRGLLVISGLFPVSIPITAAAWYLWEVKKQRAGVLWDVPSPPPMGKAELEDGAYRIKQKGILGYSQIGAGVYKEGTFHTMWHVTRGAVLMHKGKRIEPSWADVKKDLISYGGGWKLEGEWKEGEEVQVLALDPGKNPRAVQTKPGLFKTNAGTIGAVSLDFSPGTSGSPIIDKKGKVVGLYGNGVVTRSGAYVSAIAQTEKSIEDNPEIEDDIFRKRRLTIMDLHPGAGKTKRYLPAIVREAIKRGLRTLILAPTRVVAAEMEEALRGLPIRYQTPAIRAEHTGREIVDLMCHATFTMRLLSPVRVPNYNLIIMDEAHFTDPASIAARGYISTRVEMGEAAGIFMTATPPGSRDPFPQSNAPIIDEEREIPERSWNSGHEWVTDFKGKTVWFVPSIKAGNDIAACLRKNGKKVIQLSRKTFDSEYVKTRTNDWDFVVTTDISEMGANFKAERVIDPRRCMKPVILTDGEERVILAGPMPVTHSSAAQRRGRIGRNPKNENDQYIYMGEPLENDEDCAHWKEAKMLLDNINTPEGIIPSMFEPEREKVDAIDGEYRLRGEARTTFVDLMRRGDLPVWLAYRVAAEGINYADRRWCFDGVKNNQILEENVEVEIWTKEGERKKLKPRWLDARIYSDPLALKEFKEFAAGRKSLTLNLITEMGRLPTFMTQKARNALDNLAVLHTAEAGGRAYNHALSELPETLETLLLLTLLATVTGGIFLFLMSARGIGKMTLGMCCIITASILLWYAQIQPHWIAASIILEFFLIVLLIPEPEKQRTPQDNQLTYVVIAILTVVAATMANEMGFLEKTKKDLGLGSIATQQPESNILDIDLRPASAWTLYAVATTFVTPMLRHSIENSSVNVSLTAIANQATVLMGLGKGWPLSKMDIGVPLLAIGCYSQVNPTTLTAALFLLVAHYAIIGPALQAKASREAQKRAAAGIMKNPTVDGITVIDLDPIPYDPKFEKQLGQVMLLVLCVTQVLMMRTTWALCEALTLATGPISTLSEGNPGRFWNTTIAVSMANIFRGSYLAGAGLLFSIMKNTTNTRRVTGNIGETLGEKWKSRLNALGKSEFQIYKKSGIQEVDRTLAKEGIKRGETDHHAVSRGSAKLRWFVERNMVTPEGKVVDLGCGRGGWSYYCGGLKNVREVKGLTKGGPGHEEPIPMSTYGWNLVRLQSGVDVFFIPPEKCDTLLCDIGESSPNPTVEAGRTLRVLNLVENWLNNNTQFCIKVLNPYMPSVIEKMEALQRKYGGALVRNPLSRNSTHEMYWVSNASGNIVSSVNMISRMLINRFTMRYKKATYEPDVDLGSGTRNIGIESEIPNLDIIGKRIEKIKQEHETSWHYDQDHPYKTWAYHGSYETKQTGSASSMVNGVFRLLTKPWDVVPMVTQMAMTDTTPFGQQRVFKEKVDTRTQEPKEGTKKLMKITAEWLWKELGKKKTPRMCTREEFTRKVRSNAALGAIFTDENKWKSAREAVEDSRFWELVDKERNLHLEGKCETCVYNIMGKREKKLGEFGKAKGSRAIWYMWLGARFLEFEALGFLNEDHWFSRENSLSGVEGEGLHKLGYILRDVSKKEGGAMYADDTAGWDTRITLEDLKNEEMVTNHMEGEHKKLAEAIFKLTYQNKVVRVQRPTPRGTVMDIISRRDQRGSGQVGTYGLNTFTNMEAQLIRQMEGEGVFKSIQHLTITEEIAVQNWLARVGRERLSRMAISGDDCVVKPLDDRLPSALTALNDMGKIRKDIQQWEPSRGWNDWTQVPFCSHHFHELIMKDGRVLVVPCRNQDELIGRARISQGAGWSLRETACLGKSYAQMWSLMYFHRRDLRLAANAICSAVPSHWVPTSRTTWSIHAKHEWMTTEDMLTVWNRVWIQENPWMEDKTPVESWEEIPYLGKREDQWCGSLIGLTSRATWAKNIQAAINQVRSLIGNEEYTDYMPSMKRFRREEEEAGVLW
As to `Cn1c(=O)c2[nH]c(-c3ccc(Cl)cc3)c(O)c2n(C)c1=O`, the half-maximal inhibitory concentration (IC50) is 7.51 µM. In the case of `O=C(O)CSc1cc(NS(=O)(=O)c2ccc(Cl)cc2)c2ccccc2c1O`, the IC50 is 7.89 µM. The same measure, in the same setting: the value for `O=C(O)CSc1cc(NS(=O)(=O)c2cccc([N+](=O)[O-])c2)c2ccccc2c1O` was 3.33 µM; that for `O=S(=O)(Nc1cc(Sc2ccccc2)c(O)c2ccccc12)c1ccc(F)cc1` was 47.9 µM; that for `Cc1ccc(S(=O)(=O)Nc2cc(Sc3nc(C)cc(C)n3)c(O)c3ccccc23)cc1` was 46 µM. Still for that read-out and setting: the value for `O=[N+]([O-])c1cccc(S(=O)(=O)Nc2cc(Sc3nc4ccccc4s3)c(O)c3ccccc23)c1` was 18.3 µM.

Regarding `O=S(=O)(Nc1cc(SCc2ccccc2)c(O)c2ccccc12)c1ccc(Cl)cc1`, the IC50 was 4.23 µM.

Take `O=[N+]([O-])c1cccc(S(=O)(=O)Nc2cc(SCc3ccccc3)c(O)c3ccccc23)c1`: the IC50 was 3.03 µM. In the case of `O=C(O)CSc1cc(NS(=O)(=O)c2ccc(Br)cc2)c2ccccc2c1O`, the half-maximal inhibitory concentration (IC50) is 2.37 µM.

The same experiment, now with this note: Dengue-2 NS5 guanylylation inhibition, at 50 µM (top of the series).
Consider `Cc1ccc(S(=O)(=O)Nc2cc(SCC(=O)O)c(O)c3ccccc23)cc1`, for which the inhibition entry is “inactive”. Take `Cc1cc(F)ccc1S(=O)(=O)Nc1cc(SCC(=O)O)c(O)c2ccccc12`: the inhibition entry is “inactive”. Turning to `Cc1cc(C)c(S(=O)(=O)Nc2cc(SCC(=O)O)c(O)c3ccccc23)c(C)c1`, the inhibition entry is “inactive”. On the same count and under the same terms, the value for `O=S(=O)(Nc1cc(Sc2ncn[nH]2)c(O)c2ccccc12)c1ccc(F)cc1` was “inactive”; that for `O=C(O)CSc1cc(NS(=O)(=O)c2ccc(F)cc2)c2ccccc2c1O` was “inactive”.

The values are drawn from PubChem BioAssay AID623863 (Southern Research Specialized Biocontainment Screening …, 2012).
